In patent US20260048075A1, “Inhibition of TCF4/ITF2 in the Treatment of Cancer” (VIB VZW, priority 2022, published 2026):
Read-outs that look alike come from different tables or passages of the source.

What was measured:
TCF4 locus = assay: OmniATAC-seq chromatin accessibility; format: cell-based, human; conditions: MM057 cells; ARV-771 100 nM
Method: Approximately […] MM057 cells were plated in a 6-well plate and treated with ARV-771 100 nM after 24 hours. Forty eight hours after plating, cells were collected. Nuclei of 50,000 cells were isolated and an Omni-assay for transposase-accessible chromatin using sequencing (OmniATAC-seq) was performed as described previously (Corces et al. 2017, Nat Methods 14:959-962). After final amplification, samples were cleaned up with MinElute (QIAGEN) and libraries were prepared using the KAPA Library Quantification Kit (supplier). Samples were sequenced on an IlluminaNextSeq 500 High Output chip. Briefly, reads were mapped to human genome (GRCh37) using STAR (2.7.1a-foss-2018a). Resulting BAMfiles were cleaned for duplicates using Picard (2.21.8-Java-1.8.0) and indexed. Mitochondrial reads were removed using SAMtools (1.9-20190828-foss-2018a) and BigWig files were created (deepTools/3.3.1-foss-2018a-Python-3.7.4). ATAC-seq peaks were identified and visualized using MACS2 peak calling (2.1.2.1-foss-2018a-Python-2.7.16) with […] BAMPE parameters. Finally, BED files were created from broadPeak files using BEDTools (2.28.0-foss-2018a).

TCF4 [1] = assay: RT-qPCR of TCF4 expression after ARV-771; format: cell-based, human; conditions: MM057 cells; collected 48 hours after plating
Method: MM057 cells were plated and treated with the specified dose of ARV-771, as described above 48 hours after plating, cells were collected, resuspended in RA1 lysis buffer using the RNA NucleoSpin extraction kit (Macherey&Nagel) and processed according to manufacturer's instructions. RNA was quantified using a ThermoScientific NanoDrop 1000 and 500 to 2000 ng was reverse transcribed with a High-Capacity cDNA Reverse Transcription Kit (Life Technologies). qPCRs were run using the SensiFAST probe No-ROX kit (Bioline, Cat #BIO-86005) on a Roche Life Science LightCycler 384. Data processing with Biogazelle Qbase+3.1 software relied on normalization with a minimum of two reference genes.

TCF4 [2] = conditions: B cell lymphoma and BPDCN; Jain et al. 2019, Ceribelli et al. 2016; cited from earlier work
melanoma MES cells = assay: Bulk RNA sequencing after ARV-771 exposure; format: cell-based, human; conditions: 50 nM ARV-771; for antigen presentation program expression: melanoma MES cells
Method: Approximately 2*10^5 cells were plated in a 6-well plate. For knockdown experiments, these were transfected with the described siRNA pool 24 and 72 hours after plating and collected 24 hours after the second transfection. For inducible TCF4 experiments, cells were treated with 2 ng/ml doxycycline (Sigma-Aldrich, Cat #D9891) every 48 hours and collected 96 hours after plating. For ARV-771 experiments, cells were treated with 50 nM ARV-771 (Bioconnect, Cat #HY-100972) 24 hours after plating and collected 96 hours after plating. RNA was extracted using the RNA NucleoSpin extraction kit (Macherey&Nagel) according to the manufacturer's instructions.
The RNA integrity was monitored using Bioanalyzer analysis. 5 ng of RNA per sample was reverse-transcribed and amplified using a modified version of the SMARTseq2 protocol, previously described in Rambow et al. 2018 (Cell 174:843-855.e19). Prior to generating sequencing libraries using the NexteraXT kit (Illumina, Cat #FC-131-10), cDNA profiles were monitored using the Bioanalyzer. Sequencing was performed on a Illumina Nextseq500 platform. Differential gene expression analyses were executed using the DeSeq2 pipeline.

MM029 cells = assay: Proliferation assay (IncuCyte cell confluency); format: cell-based, human; conditions: ARV-771 300 nM with dabrafenib 50 nM, trametinib 10 nM, FIG. 9
Method: Roughly 400 MM029 cells per well were plated in a 96-well plate and treated with ARV-771 300 nM and/or Dabrafenib 50 nM+Trametinib 10 nM after 24 hours. Cells were imaged using the IncuCyte ZOOM System (Essen Bioscience) and automated cell confluency measurements were made using images taken at 2 hour intervals, for the duration of the experiments. Five technical replicates were averaged and statistical significance was assessed (paired, two-tailed Student's t-test).

Question: Which “chromatin accessibility upstream of the TCF4 locus” value (TCF4 locus) does the source give for `Cc1ncsc1-c1ccc([C@H](C)NC(=O)[C@@H]2C[C@@H](O)CN2C(=O)[C@@H](NC(=O)COCCCOCCNC(=O)C[C@@H]2N=C(c3ccc(Cl)cc3)c3c(sc(C)c3C)-n3c(C)nnc32)C(C)(C)C)cc1` [ARV-771] here?
Answer: decreased chromatin accessibility upstream of the TCF4 locus

Question: And the TCF4 expression (TCF4 [1])?
Answer: dose-dependent decrease in TCF4 expression

Question: What about the TCF4 expression (TCF4 [2]) of the same molecule?
Answer: decrease its expression

Question: What about the “expression of genes from the MES signature” value (melanoma MES cells) of the same molecule?
Answer: strongly downregulated

Question: What about the “expression of genes from the MITF-dependent MEL signature” value (melanoma MES cells) of the same molecule?
Answer: upregulated

Question: What about the “transcriptional changes compared with TCF4 silencing” value (melanoma MES cells) of the same molecule?
Answer: recapitulated most of the transcriptional changes observed upon TCF4 silencing

Question: And the “antigen presentation program expression” value (melanoma MES cells)?
Answer: upregulated

Question: And the “antigen presentation program expression” value (melanoma MES cells; listed as ARV-711)?
Answer: unleashes the expression of antigen presentation machinery and HLA-genes

Question: And the “overall transcriptional reprogramming effect upon BET-inhibition” value (melanoma MES cells; mesenchymal-like vs melanocytic cell lines)?
Answer: far more drastic in mesenchymal-like than in melanocytic cell lines

Question: And the “sensitivity to BRAF- and MEK-inhibition (cell growth)” value (MM029 cells)?
Answer: increased sensitivity to BRAF- and MEK-inhibition
